Laboratory results taken from the supplement of paper PMC10307832.

Assays:
Test in all cases: relative viability (nuclei count vs DMSO), 5 days (fraction); higher = more cells survive
Neratinib + Olaparib = compound: CCOc1cc2ncc(C#N)c(Nc3ccc(OCc4ccccn4)c(Cl)c3)c2cc1NC(=O)/C=C/CN(C)C [Neratinib] + O=C(c1cc(Cc2n[nH]c(=O)c3ccccc23)ccc1F)N1CCN(C(=O)C2CC2)CC1 [Olaparib] (partner 8 µM)
How it was run: (§1)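 Lung cancer cell lines, seeded in 1536-well plates, were treated the following day by pin tool with a single drug or with five library-drug doses (not always all listed) in √10 steps on top of a fixed anchor-drug dose. Cells were fixed and nuclei stained in one step after 5 days, and nuclei were counted. Relative viability is the nuclei count for treated wells divided by that for vehicle wells, reported as medians of duplicate plates.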

Neratinib + Bortezomib = compound: CCOc1cc2ncc(C#N)c(Nc3ccc(OCc4ccccn4)c(Cl)c3)c2cc1NC(=O)/C=C/CN(C)C [Neratinib] + CC(C)C[C@H](NC(=O)[C@H](Cc1ccccc1)NC(=O)c1cnccn1)B(O)O [Bortezomib] (partner 0.002 µM)
How it was run: as §1

Neratinib + Alpelisib = compound: CCOc1cc2ncc(C#N)c(Nc3ccc(OCc4ccccn4)c(Cl)c3)c2cc1NC(=O)/C=C/CN(C)C [Neratinib] + Cc1nc(NC(=O)N2CCC[C@H]2C(N)=O)sc1-c1ccnc(C(C)(C)C(F)(F)F)c1 [Alpelisib] (partner 2 µM)
How it was run: as §1

Neratinib + Pemetrexed = compound: CCOc1cc2ncc(C#N)c(Nc3ccc(OCc4ccccn4)c(Cl)c3)c2cc1NC(=O)/C=C/CN(C)C [Neratinib] + Nc1nc2[nH]cc(CCc3ccc(C(=O)N[C@@H](CCC(=O)O)C(=O)O)cc3)c2c(=O)[nH]1 [Pemetrexed] (partner 0.2 µM)
How it was run: as §1

Row | Cell Line | relative viability (Neratinib + Olaparib; first compound 0.01 µM) | relative viability (Neratinib + Olaparib; first compound 0.03162 µM) | relative viability (Neratinib + Olaparib; first compound 0.1 µM) | relative viability (Neratinib + Olaparib; first compound 0.3162 µM) | relative viability (Neratinib + Olaparib; first compound 1 µM) | relative viability (Neratinib + Bortezomib; first compound 0.01 µM) | relative viability (Neratinib + Bortezomib; first compound 0.03162 µM) | relative viability (Neratinib + Bortezomib; first compound 0.1 µM) | relative viability (Neratinib + Bortezomib; first compound 0.3162 µM) | relative viability (Neratinib + Bortezomib; first compound 1 µM) | relative viability (Neratinib + Alpelisib; first compound 0.01 µM) | relative viability (Neratinib + Alpelisib; first compound 0.03162 µM) | relative viability (Neratinib + Alpelisib; first compound 0.1 µM) | relative viability (Neratinib + Alpelisib; first compound 0.3162 µM) | relative viability (Neratinib + Alpelisib; first compound 1 µM) | relative viability (Neratinib + Pemetrexed; first compound 0.01 µM) | relative viability (Neratinib + Pemetrexed; first compound 0.03162 µM) | relative viability (Neratinib + Pemetrexed; first compound 0.1 µM) | relative viability (Neratinib + Pemetrexed; first compound 0.3162 µM) | relative viability (Neratinib + Pemetrexed; first compound 1 µM)
1 | HCC-78 | 0.996 | 0.87 | 0.817 | 0.798 | 0.396 | 0.478 | 0.446 | 0.432 | 0.43 | 0.301 | 0.359 | 0.344 | 0.329 | 0.254 | 0.225 | 0.889 | 0.925 | 0.883 | 0.898 | 0.885
2 | HCC-366 | 0.36 | 0.324 | 0.267 | 0.347 | 0.404 | 1.16 | 1.13 |  | 1.01 | 1.07 | 0.716 | 0.418 | 0.402 |  | 0.35 | 0.202 | 0.147 | 0.158 | 0.14 | 0.171
3 | HCC-827 | 0.624 | 0.763 | 0.665 | 0.272 | 0.107 | 1.05 | 1.07 | 0.876 | 1.13 | 0.376 | 1.05 | 1.11 | 0.967 | 0.583 | 0.182 | 0.273 | 0.271 | 0.191 | 0.153 | 0.13
4 | HOP-62 | 0.416 | 0.459 | 0.367 | 0.412 | 0.344 | 0.872 | 0.855 | 0.624 | 0.541 | 1 | 0.903 | 1 | 0.847 | 0.967 |  | 0.323 | 0.31 | 0.206 |  | 0.241
5 | IA-LM | 0.985 | 0.82 | 0.715 | 0.838 | 0.517 | 0.952 | 0.908 | 0.787 | 0.891 | 0.507 | 0.846 | 0.894 | 0.647 | 0.782 | 0.486 |  |  |  |  | 
6 | LC-2-ad | 0.777 |  | 0.651 | 0.756 | 0.785 | 1 | 1.07 | 0.866 | 1 | 0.963 | 0.923 | 0.95 | 0.734 | 0.783 | 0.312 | 0.25 | 0.258 | 0.274 | 0.282 | 0.24
7 | LK-2 | 0.941 | 0.949 | 0.747 | 0.553 | 0.433 |  |  |  |  |  | 1.15 | 1.17 |  | 0.816 | 0.327 | 0.318 | 0.464 | 0.265 | 0.221 | 0.151
8 | NCI-H358 | 0.552 | 0.569 | 0.409 | 0.238 | 0.162 |  |  |  |  |  | 0.781 | 0.841 | 0.372 | 0.236 | 0.22 | 0.172 | 0.161 | 0.168 | 0.133 | 0.153
9 | NCI-H727 | 0.796 | 0.678 |  | 0.764 | 0.613 | 0.961 | 0.914 |  | 0.893 | 0.536 | 0.525 | 0.542 |  | 0.441 | 0.276 |  |  |  |  | 
10 | NCI-H1299 | 0.954 | 0.983 | 0.85 | 0.99 | 0.974 | 1.03 | 1 | 0.965 | 1.03 | 1.1 | 1 |  |  | 1.04 | 1.04 |  |  |  |  | 
11 | NCI-H1395 |  | 0.491 | 0.449 | 0.469 | 0.413 |  |  |  |  |  | 1.07 | 1.17 | 1.06 | 1.07 | 0.729 | 1.01 | 0.982 | 0.862 | 0.877 | 0.614
12 | NCI-H1563 |  |  |  |  |  | 0.812 |  | 0.685 | 0.752 | 0.647 | 0.815 | 0.984 | 0.877 | 0.843 | 0.875 | 0.812 | 0.924 | 0.739 | 0.747 | 0.582
13 | NCI-H1648 | 0.855 | 0.917 | 0.806 | 0.643 | 0.427 |  |  |  |  |  |  |  |  |  |  | 0.836 | 0.799 | 0.663 | 0.685 | 0.55
14 | NCI-H1650 | 0.867 | 0.712 | 0.717 | 0.652 | 0.796 | 0.207 | 0.201 | 0.206 | 0.228 | 0.197 |  |  |  |  |  | 0.381 | 0.348 | 0.31 | 0.314 | 0.325
15 | NCI-H1703 | 0.536 | 0.486 | 0.402 | 0.218 | 0.162 | 0.335 | 0.345 | 0.394 | 0.233 | 0.18 | 0.36 | 0.354 | 0.279 | 0.205 | 0.165 |  |  |  |  | 
16 | NCI-H1793 | 1 | 0.855 | 0.551 | 0.345 | 0.217 |  |  |  |  |  | 0.708 | 0.664 | 0.472 | 0.519 | 0.296 | 0.92 | 0.778 | 0.637 | 0.666 | 0.414
17 | NCI-H1944 | 0.45 | 0.406 | 0.229 | 0.352 | 0.319 |  |  |  |  |  | 0.948 | 0.782 | 0.615 | 0.561 | 0.393 | 0.642 | 0.563 |  | 0.555 | 0.439
18 | NCI-H2170 | 0.627 | 0.49 | 0.32 | 0.151 | 0.158 |  |  |  |  |  | 0.619 | 0.383 | 0.314 | 0.21 | 0.265 | 0.275 | 0.261 | 0.237 | 0.203 | 0.196
19 | NCI-H2342 | 0.397 | 0.416 | 0.385 | 0.331 | 0.298 |  |  |  |  |  |  |  |  |  |  | 0.722 | 0.774 | 0.714 | 0.564 | 0.497
20 | SK-MES-1 | 0.807 | 0.778 | 0.631 | 0.264 | 0.233 |  |  |  |  |  | 0.914 | 0.988 | 0.661 | 0.384 | 0.207 | 1.01 | 0.925 | 0.89 | 0.529 | 0.308
21 | SW 900 | 0.975 | 0.826 | 0.714 | 0.662 | 0.607 |  |  |  |  |  |  |  |  |  |  | 0.514 | 0.473 | 0.426 | 0.454 | 0.371
